Source: patent US10793514B2, “Glutamine transport inhibitors and methods for treating cancer” (Vanderbilt University, priority 2016, dated 2020)

Tests used:
Colo-205 xenografts = experiment: Colo-205 xenograft 10-day exposure study; format: in vivo, mouse; conditions: 75 mg/kg per day, 10 days
[1] = test system: activated CD8-positive T-cells; experiment: Viability and activation of CD8-positive T-cells; format: cell-based, mouse; conditions: 96 hrs
Experimental: CD8+ cells were isolated from the spleens of 8-12 week old C57BL6 mice on standard chow from Jackson Labs maintained under IACUC approved protocols. CD8+ cells were stained using the proliferative dye Cell Trace Violet (LifeTech) before stimulation as per manufacturer's protocol. Cells were stimulated on 5 ug/mL anti-CD3/CD28-coated plates in media containing IL-2 (‘activated’, 10 ng/mL), or in tissue-culture treated plates in media containing IL-7 (‘naive’, 1 ng/mL) for up to 7 days. Cells were removed at each day described for viability, cell counts, proliferation, and surface markers of activation. Cell surface markers used were CD62L-FITC and APC, CD44-PECy5 and CD25-PE. All data were acquired in triplicate on a MacsQuant Analyzer (Miltenyi Biotec) and analyzed using FlowJo V10 (TreeStar software).

[2] = test system: HT29 (BRAF V600E) cell-line xenografts; experiment: HT29 xenograft chronic exposure study; format: in vivo, mouse; conditions: 75 mg/kg per day, 21 days
Experimental: Tissues were sectioned (5 μm thickness) and stained for pS6 (Cell Signaling, #4858) and caspase 3 (Cell Signaling #9661). Tissue slides were imaged at 20× magnification.
For in vivo studies, cell-line xenograft tumors were propagated in 6-week old, female athymic nude mice from immortalized cell lines. For HCC-1806 (10×10^6 cells), HCT-116 (5×10^6), and HT29 (10×10^6) cells were injected. Palpable tumors were typically visible within 2-3 weeks. For imaging studies (HCC-1806), tumors were propagated to approximately 500 mm^3. For treatment studies (HCT-116, HT29) tumors were propagated to approximately 200 mm^3 prior to therapy and were randomly assigned into treated and untreated cohorts. For generating the PDX, primary tumor tissue was obtained form a patient at Vanderbilt University Medical Center under an IRB approved protocol. The tumor tissue was genotyped within the VANTAGE core facility. Xenograft was generated as previously described 41. Briefly, tumor tissues were sectioned into approximately 125 cubic millimeter pieces then implanted subcutaneously without further manipulation. […] Tumor volumes were measured manually using calipers every third day and quantified using the formula V=W·L·(H/2).

HCC1806 cells [3] = experiment: Fluorescence redox ratio imaging; format: cell-based, human; conditions: 10 μM, 48 h
Experimental: HCC1806 cells were plated on 35-mm glass-bottom petri dishes for imaging (MatTek Corp). Fluorescence intensity and lifetime images were acquired using a custom-built multiphoton fluorescence lifetime system (Bruker), with a 40× oil-immersion objective (1.3 NA) and an inverted microscope (TiE, Nikon). A titanium:sapphire laser (Chameleon Ultra II, Coherent) was tuned to 750 nm for two-photon excitation of NAD(P)H and tuned to 890 nm for two-photon excitation of FAD. A 440/80 nm bandpass filter was used to collect NAD(P)H fluorescence emission, and a 550/100 nm was used to collect FAD emission. […] A GaAsP PMT (H7422P-40, Hamamatsu) detected emitted photons. […] Time-correlated single photon counting electronics (SPC-150, Becker and Hickl) were used to acquire fluorescence decay curves. […] Fluorescence lifetime validation was performed by imaging a fluorescent bead (Polysciences Inc) and confirming that the measured lifetime (2.1 ns) agreed with previously published values^22. […]
An automated cell segmentation routine was written using CellProfiler to identify individual cell cytoplasms and extract average fluorescence intensity and fluorescence lifetime values for each cell in the field of view. Intensity values for each pixel were calculated by integrating the decay curve for each pixel. […]

[4] = test system: human CRC organoids A-007 and A-008; experiment: Human CRC organoid viability assay; format: cell-based; conditions: V-9302 25 μM or CB-839 35 μM, 96 h
Experimental: Human CRC-derived organoids were prepared as reported method with modification^41. Briefly, specimens from freshly resected tumors were minced and digested with 2 mg/ml type 2 collagenase (Worthington, N.J., USA). Samples were passed through 40 µm filters (Greiner Bio One, NC, USA) and epithelial cells trapped on the filters were embed in Matrigel (Corning, MA, USA) and cultured with advanced DMEM/F12 supplemented with N2 and B27 supplements (Thermo Fischer, MA, USA), 50 ng/ml rhEGF (R&D systems, MN, USA) and 1% antibiotic-antimycotic (Corning). For viability assay, organoids were dissociated by TrypLE express (Thermo Fischer) and suspended in Matrigel. […] After 4 days of culture, images of the organoids in Matrigel were captured and the number of viable cells were quantified with CellTiter Aqueous One Cell Proliferation Assay kit (Promega, WI, USA) and a Synergy 4 plate reader (BioTek, VT, USA). The assay was replicated at least three times, technically and biologically. Significance was calculated using a t-test in Graphpad Prism. Error is reported as standard deviation (SD).

HCC1806 cells [5] = experiment: Glutathione and reactive oxygen species in HCC1806 cells; format: cell-based, human
Experimental: Glutathione levels were measured using a commercially available kit (Cayman Chemical 703002) according to the manufacturers protocol. Concurrently ROS was measured in cells using CM-H2DCFDA (Life Technologies C6827) coupled with flow cytometry in accordance with the manufacturers protocol. The assay was replicated replicated at least three times, technically and biologically. Significance was calculated using a t-test in Graphpad Prism. Error is reported as standard deviation (SD).

In the case of Cc1cccc(COc2ccccc2CN(CCC(N)C(=O)O)Cc2ccccc2OCc2cccc(C)c2)c1 (stereo not drawn) [Compound V-9302], the “tumor BRDU uptake” value (Colo-205 xenografts) is reported as “decreased tumor BRDU uptake”, the tumor growth (Colo-205 xenografts) is reported as “tumor growth arrest” and the tumor response markers (Colo-205 xenografts) is reported as “elevated LC3B, cleaved caspase 3 and decreased pAKT (Ser473 and Thr308), as well as increased cleaved PARP and decreased and pERK”. For the same compound, the T-cell activation ([1]; CD44 expression) was “not impaired”, the T-cell viability ([1]; in vitro, relative to vehicle) was “unchanged relative to vehicle” and the “cleaved caspase 3 in tumor tissue” value ([2]; IHC) was “elevated levels of cleaved caspase 3”. The “pS6 in tumor tissue” value ([2]; IHC) was “significantly decreased pS6”, the tumor growth ([2]; vs vehicle) was “prevented tumor growth” and the “fluorescent lifetimes of NAD(P)H and FAD” value (HCC1806 cells [3]) was “decreased the fluorescent lifetimes of both NAD(P)H and FAD”. The organoid viability [4] was “significantly reduced”, the “intracellular reactive oxygen species (ROS)” value (HCC1806 cells [5]) was “corresponding increase in intracellular reactive oxygen species (ROS)” and the “oxidized (GSSG) and reduced (GSH) glutathione” value (HCC1806 cells [5]) was “increased levels of oxidized glutathione (GSSG) at the expense of reduced glutathione (GSH)”.
